# Reference: patent US20200288710A1, “SUBSTITUTED SULPHONAMIDES FOR CONTROLLING ANIMAL PESTS” (BAYER CROPSCIENCE AKTIENGESELLSCHAFT, priority 2016, published 2020)
# Experiments:
# Format in all cases: in vivo
# [1] = system: Meloidogyne incognita; test: Meloidogyne incognita test; settings: 336 h, lettuce, after 14 days, read-out: nematicidal efficacy (formation of galls)
# Description: Meloidogyne incognita Test Solvent: 125.0 parts by weight of acetone To produce a suitable active compound preparation, 1 part by weight of active compound is mixed with the stated amount of solvent and the concentrate is diluted with water to the desired concentration. Vessels are filled with sand, active compound solution, an egg/larvae suspension of the southern rootknot nematode (Meloidogyne incognita) and lettuce seeds. The lettuce seeds germinate and the plants develop. The galls develop on the roots. After 14 days, the nematicidal efficacy in % is determined by the formation of galls. 100% means that no galls were found; 0% means that the number of galls on the treated plants corresponds to the untreated control.
# [2] = system: Myzus persicae; test: Myzus persicae spray test (Chinese cabbage leaf discs); settings: foliar, 120 h, 500 g/ha, after 5-6 days, read-out: efficacy
# Method in brief: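 Formulated compound in acetone/dimethylformamide, diluted in water with 1000 ppm emulsifier, was sprayed onto Brassica pekinensis leaf discs carrying mixed-stage Myzus persicae. Percent mortality was read 5-6 days later (0% = no aphids killed, 100% = all killed).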
# [3] = system: Myzus persicae; test: Myzus persicae oral test; settings: 120 h, 20 ppm, oral uptake, after 5 days, read-out: efficacy
# Method in brief: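 Aphids of mixed ages imbibe, through parafilm, compound solution (acetone stock, water-diluted) combined with sugar-supplemented IPL41 medium to 200 μl. Efficacy read at day 5 as percent killed, 0% meaning no deaths.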
compound,measurement,setting,value
Cn1cc(C(=O)NS(=O)(=O)c2ccc(C(F)(F)F)cc2Cl)nc1-c1c(F)cccc1F [Example 441],pest or weed control at 20 ppm,[1],100%
same,pest or weed control at 500 g/ha,[2],90%
CSc1cccc(Cl)c1S(=O)(=O)NC(=O)c1cn(C)c(-c2ccccc2Cl)n1 [Example 422],pest or weed control at 20 ppm,[1],90%
same,pest or weed control at 500 g/ha,[2],90%
same,pest or weed control at 20 ppm,[3],100%
CC(C)S(=O)(=O)NC(=O)c1cn(C)c(-c2ccccc2Cl)n1 [Example 193],pest or weed control at 20 ppm,[1],90%
same,pest or weed control at 500 g/ha,[2],100%
COc1ccccc1S(=O)(=O)NC(=O)c1cn(C)c(-c2cccc(F)c2F)n1 [Example 528],pest or weed control at 20 ppm,[1],90%
same,pest or weed control at 500 g/ha,[2],100%
same,pest or weed control at 20 ppm,[3],100%
COc1cc(C(=O)NS(=O)(=O)c2ccccc2Br)nn1-c1ccccc1Cl [Example 277],pest or weed control at 20 ppm,[1],90%
same,pest or weed control at 500 g/ha,[2],100%
same,pest or weed control at 20 ppm,[3],100%
Cn1cc(C(=O)NS(=O)(=O)c2cscc2Br)nc1-c1c(F)cccc1F [Example 183],pest or weed control at 20 ppm,[1],100%
same,pest or weed control at 500 g/ha,[2],100%
same,pest or weed control at 20 ppm,[3],100%
COc1ccc(Cl)cc1S(=O)(=O)NC(=O)c1cn(C)c(-c2c(F)cccc2F)n1 [Example 393],pest or weed control at 20 ppm,[1],90%
same,pest or weed control at 500 g/ha,[2],100%
same,pest or weed control at 20 ppm,[3],100%
Cn1cc(C(=O)NS(=O)(=O)c2cc(C(F)(F)F)ccc2Cl)nc1-c1c(F)cccc1F [Example 453],pest or weed control at 20 ppm,[1],90%
same,pest or weed control at 500 g/ha,[2],90%
same,pest or weed control at 20 ppm,[3],100%
COc1ccc(Cl)c(S(=O)(=O)NC(=O)c2cn(C)c(-c3ccccc3Cl)n2)c1 [Example 228],pest or weed control at 20 ppm,[1],100%
same,pest or weed control at 500 g/ha,[2],100%
CCc1[nH]c(-c2ccc(F)cc2F)nc1C(=O)NS(=O)(=O)C(C)C [Example 123],pest or weed control at 20 ppm,[1],90%
same,pest or weed control at 500 g/ha,[2],90%
CCc1[nH]c(-c2ccc(F)c(F)c2)nc1C(=O)NS(=O)(=O)c1ccccc1C [Example 207],pest or weed control at 20 ppm,[1],90%
same,pest or weed control at 500 g/ha,[2],90%
Cc1ccc(S(=O)(=O)NC(=O)c2cn(C)c(-c3c(F)cccc3F)n2)cc1 [Example 175],pest or weed control at 20 ppm,[1],100%
same,pest or weed control at 500 g/ha,[2],90%
Cn1cc(C(=O)NS(=O)(=O)c2ccc(Cl)cc2)nc1-c1ccccc1Cl [Example 230],pest or weed control at 20 ppm,[1],100%
same,pest or weed control at 500 g/ha,[2],100%
Cc1[nH]c(C(=O)NS(=O)(=O)C(C)C)nc1-c1ccccc1Cl [Example 202],pest or weed control at 20 ppm,[1],90%
same,pest or weed control at 20 ppm,[3],100%
CCOc1ccccc1S(=O)(=O)NC(=O)c1cn(C)c(-c2c(F)cccc2F)n1 [Example 16],pest or weed control at 20 ppm,[1],90%
same,pest or weed control at 500 g/ha,[2],90%
Cc1ccccc1S(=O)(=O)NC(=O)c1cn(C)c(-c2cccc3c2OC(F)(F)O3)n1 [Example 542],pest or weed control at 20 ppm,[1],100%
same,pest or weed control at 500 g/ha,[2],90%
COc1ccc(Cl)c(S(=O)(=O)NC(=O)c2nc(-c3ccc(Cl)cc3)[nH]c2C)c1 [Example 618],pest or weed control at 20 ppm,[1],100%
same,pest or weed control at 20 ppm,[3],100%
CCn1cc(C(=O)NS(C)(=O)=O)nc1-c1ccccc1Cl [Example 79],pest or weed control at 20 ppm,[1],90%
same,pest or weed control at 500 g/ha,[2],100%
CC(C)CS(=O)(=O)NC(=O)c1cn(C)c(-c2c(F)cccc2Cl)n1 [Example 325],pest or weed control at 20 ppm,[1],90%
same,pest or weed control at 20 ppm,[3],100%
COc1ccc(Cl)c(S(=O)(=O)NC(=O)c2c[nH]c(-c3c(F)cccc3F)n2)c1 [Example 411],pest or weed control at 20 ppm,[1],90%
same,pest or weed control at 20 ppm,[3],100%
Cn1cc(C(=O)NS(=O)(=O)c2ccc(Cl)cc2)nc1-c1c(F)cc(F)cc1F [Example 9],pest or weed control at 20 ppm,[1],100%
same,pest or weed control at 500 g/ha,[2],90%
Cc1ccccc1S(=O)(=O)NC(=O)c1cc(-c2ncccc2Cl)n(-c2ccccc2Cl)n1 [Example 265],pest or weed control at 20 ppm,[1],100%
same,pest or weed control at 20 ppm,[3],100%
Cn1cc(C(=O)NS(=O)(=O)c2ccsc2)nc1-c1c(F)cccc1F [Example 357],pest or weed control at 20 ppm,[1],90%
same,pest or weed control at 500 g/ha,[2],90%
CC(C)Sc1cccc(Cl)c1S(=O)(=O)NC(=O)c1cn(C)c(-c2c(F)cccc2F)n1 [Example 386],pest or weed control at 20 ppm,[1],90%
same,pest or weed control at 20 ppm,[3],100%
Cn1cc(C(=O)NS(=O)(=O)c2ccc(C(F)(F)F)cc2Br)nc1-c1c(F)cccc1F [Example 442],pest or weed control at 20 ppm,[1],90%
same,pest or weed control at 500 g/ha,[2],90%
CCOc1cccc(CC)c1S(=O)(=O)NC(=O)c1cn(C)c(-c2c(F)cccc2F)n1 [Example 335],pest or weed control at 20 ppm,[1],90%
same,pest or weed control at 500 g/ha,[2],90%
Cn1cc(C(=O)NS(=O)(=O)c2cccc(Cl)c2)nc1-c1c(F)cc(F)cc1F [Example 8],pest or weed control at 20 ppm,[1],100%
same,pest or weed control at 500 g/ha,[2],90%
CC(C)S(=O)(=O)NC(=O)c1cn(C)c(-c2c(F)cccc2Cl)n1 [Example 149],pest or weed control at 20 ppm,[1],90%
same,pest or weed control at 500 g/ha,[2],90%
COc1ccc(S(=O)(=O)NC(=O)c2cn(C)c(-c3ccccc3Cl)n2)cc1 [Example 34],pest or weed control at 20 ppm,[1],100%
same,pest or weed control at 500 g/ha,[2],90%
Cc1[nH]c(-c2ccccc2Cl)nc1C(=O)NS(=O)(=O)C(C)C [Example 625],pest or weed control at 20 ppm,[1],100%
same,pest or weed control at 20 ppm,[3],90%
CCn1cc(C(=O)NS(=O)(=O)CC(F)(F)F)nc1-c1ccccc1Cl [Example 77],pest or weed control at 20 ppm,[1],90%
same,pest or weed control at 20 ppm,[3],90%
COc1cccc(C)c1S(=O)(=O)NC(=O)c1cn(C)c(-c2c(F)cccc2F)n1 [Example 365],pest or weed control at 20 ppm,[1],90%
same,pest or weed control at 500 g/ha,[2],100%
Cn1cc(C(=O)NS(=O)(=O)c2cccc(F)c2Cl)nc1-c1c(F)cccc1F [Example 321],pest or weed control at 20 ppm,[1],90%
same,pest or weed control at 500 g/ha,[2],100%
Cc1ccccc1S(=O)(=O)NC(=O)c1cc(C)n(-c2c(F)cccc2F)n1 [Example 139],pest or weed control at 20 ppm,[1],90%
same,pest or weed control at 500 g/ha,[2],90%
Cc1ccccc1S(=O)(=O)NC(=O)c1cn(C)c(-c2cccc(C(C)C)c2)n1 [Example 331],pest or weed control at 20 ppm,[1],90%
same,pest or weed control at 20 ppm,[3],100%
Cn1cc(C(=O)NS(=O)(=O)c2cc(Cl)sc2Cl)nc1-c1c(F)cccc1F [Example 356],pest or weed control at 20 ppm,[1],90%
same,pest or weed control at 500 g/ha,[2],90%
CCc1c(C(=O)NS(=O)(=O)c2ccccc2C)nc(-c2c(F)cccc2F)n1C [Example 199],pest or weed control at 20 ppm,[1],90%
same,pest or weed control at 20 ppm,[3],100%
Cn1cc(C(=O)NS(=O)(=O)c2ccccc2)nc1-c1c(F)cccc1F [Example 48],pest or weed control at 20 ppm,[1],90%
same,pest or weed control at 500 g/ha,[2],90%
COc1ccc(Cl)c(S(=O)(=O)NC(=O)c2nc(-c3ccccc3Cl)[nH]c2C)c1 [Example 239],pest or weed control at 20 ppm,[1],90%
same,pest or weed control at 20 ppm,[3],100%
CCc1[nH]c(-c2cccc(Br)c2)nc1C(=O)NS(=O)(=O)c1ccccc1C [Example 134],pest or weed control at 20 ppm,[1],90%
same,pest or weed control at 20 ppm,[3],100%
CCS(=O)(=O)NC(=O)c1cn(C)c(-c2ccccc2Cl)n1 [Example 64],pest or weed control at 20 ppm,[1],90%
same,pest or weed control at 500 g/ha,[2],90%
Cc1cccc(C)c1-c1nc(C(=O)NS(=O)(=O)c2ccccc2Cl)cn1C [Example 477],pest or weed control at 20 ppm,[1],90%
same,pest or weed control at 20 ppm,[3],90%
CC(C)c1cccc(-c2nc(C(=O)NS(=O)(=O)c3ccccc3Br)cn2C)c1 [Example 330],pest or weed control at 20 ppm,[1],90%
same,pest or weed control at 20 ppm,[3],90%
CCn1c(C(=O)NS(=O)(=O)c2ccccc2OC)nc(-c2c(F)cccc2F)c1C [Example 416],pest or weed control at 20 ppm,[1],90%
same,pest or weed control at 20 ppm,[3],90%
O=C(NS(=O)(=O)C1CC1)c1cc(-c2ncccc2Cl)n(-c2ccccc2Cl)n1 [Example 456],pest or weed control at 20 ppm,[1],100%
same,pest or weed control at 20 ppm,[3],100%
Cc1[nH]c(-c2c(F)cccc2F)nc1C(=O)NS(=O)(=O)c1ccccc1Cl [Example 192],pest or weed control at 20 ppm,[1],90%
same,pest or weed control at 20 ppm,[3],100%
Cn1cc(C(=O)NS(=O)(=O)c2ccccc2Cl)nc1-c1ccccc1-c1ccccc1 [Example 532],pest or weed control at 20 ppm,[1],90%
same,pest or weed control at 20 ppm,[3],100%
Cn1cc(C(=O)NS(=O)(=O)Cc2ccc(Cl)cc2)nc1-c1ccccc1Cl [Example 63],pest or weed control at 20 ppm,[1],100%
same,pest or weed control at 20 ppm,[3],100%
COc1ccc(S(=O)(=O)NC(=O)c2cn(C)c(-c3c(F)cccc3F)n2)cc1 [Example 47],pest or weed control at 20 ppm,[1],100%
same,pest or weed control at 500 g/ha,[2],90%
COc1ccccc1S(=O)(=O)NC(=O)c1nc(-c2c(F)cccc2F)c(C)n1C [Example 310],pest or weed control at 20 ppm,[1],100%
same,pest or weed control at 500 g/ha,[2],90%
CC(C)CS(=O)(=O)NC(=O)c1cn(C)c(-c2c(F)cccc2F)n1 [Example 142],pest or weed control at 20 ppm,[1],90%
same,pest or weed control at 500 g/ha,[2],100%
CCc1c(C(=O)NS(=O)(=O)c2ccccc2Cl)nc(-c2c(F)cccc2F)n1C [Example 197],pest or weed control at 20 ppm,[1],100%
same,pest or weed control at 500 g/ha,[2],90%
CCc1cccc(OC)c1S(=O)(=O)NC(=O)c1cn(C)c(-c2c(F)cccc2F)n1 [Example 200],pest or weed control at 20 ppm,[1],100%
same,pest or weed control at 500 g/ha,[2],100%
Cc1ccccc1S(=O)(=O)NC(=O)c1cn(C)c(-c2c(F)cc(F)cc2F)n1 [Example 6],pest or weed control at 20 ppm,[1],100%
same,pest or weed control at 500 g/ha,[2],100%
